“And” between values parts separate entries of the source, which are not always exact repeats. Identical values can stand only once. Numbers after ± are expanded uncertainties.
Settings: Liquid, Vibrating wire viscometry

FC(F)C(F)(F)F [pentafluoroethane]
viscosity (253.99 K, 1440 kPa): 0.2707 ± 0.0071 mPa·s
viscosity (253.99 K, 1450 kPa): 0.271 ± 0.0071 mPa·s
viscosity (253.99 K, 1460 kPa): 0.271 ± 0.0071 mPa·s
viscosity (253.99 K, 1470 kPa): 0.2711 ± 0.0071 mPa·s
viscosity (253.99 K, 1480 kPa): 0.2707 ± 0.0071 mPa·s
viscosity (253.99 K, 3250 kPa): 0.2794 ± 0.0072 mPa·s
viscosity (253.99 K, 3280 kPa): 0.2794 ± 0.0072 mPa·s and 0.279 ± 0.0072 mPa·s and 0.2789 ± 0.0072 mPa·s
viscosity (253.99 K, 5050 kPa): 0.2876 ± 0.0074 mPa·s
viscosity (253.99 K, 5060 kPa): 0.2874 ± 0.0074 mPa·s
viscosity (253.99 K, 5100 kPa): 0.2875 ± 0.0074 mPa·s
viscosity (253.99 K, 5140 kPa): 0.2875 ± 0.0074 mPa·s
viscosity (253.99 K, 7350 kPa): 0.2984 ± 0.0076 mPa·s
viscosity (253.99 K, 7360 kPa): 0.2984 ± 0.0076 mPa·s
viscosity (253.99 K, 7380 kPa): 0.2982 ± 0.0076 mPa·s
viscosity (263.23 K, 1430 kPa): 0.2381 ± 0.0065 mPa·s
viscosity (263.23 K, 1440 kPa): 0.2373 ± 0.0065 mPa·s and 0.2375 ± 0.0065 mPa·s
viscosity (263.23 K, 1460 kPa): 0.2382 ± 0.0065 mPa·s
viscosity (263.23 K, 1480 kPa): 0.2377 ± 0.0065 mPa·s
viscosity (263.23 K, 3050 kPa): 0.2452 ± 0.0066 mPa·s
viscosity (263.23 K, 3060 kPa): 0.2453 ± 0.0066 mPa·s
viscosity (263.23 K, 3070 kPa): 0.2456 ± 0.0066 mPa·s
viscosity (263.23 K, 5030 kPa): 0.2531 ± 0.0068 mPa·s
viscosity (263.23 K, 5050 kPa): 0.2529 ± 0.0068 mPa·s
viscosity (263.23 K, 5060 kPa): 0.2535 ± 0.0068 mPa·s
viscosity (263.23 K, 5070 kPa): 0.2538 ± 0.0068 mPa·s
viscosity (263.23 K, 5080 kPa): 0.2538 ± 0.0068 mPa·s
viscosity (263.23 K, 5110 kPa): 0.2534 ± 0.0068 mPa·s
viscosity (263.23 K, 7530 kPa): 0.2643 ± 0.007 mPa·s
viscosity (263.23 K, 7560 kPa): 0.2645 ± 0.007 mPa·s
viscosity (263.23 K, 7610 kPa): 0.2645 ± 0.007 mPa·s
viscosity (263.23 K, 7640 kPa): 0.2646 ± 0.007 mPa·s
viscosity (263.23 K, 9770 kPa): 0.2743 ± 0.0071 mPa·s
viscosity (263.23 K, 9800 kPa): 0.274 ± 0.0071 mPa·s
viscosity (263.23 K, 9820 kPa): 0.2745 ± 0.0072 mPa·s
viscosity (273.08 K, 1460 kPa): 0.2076 ± 0.006 mPa·s
viscosity (273.08 K, 1480 kPa): 0.2075 ± 0.006 mPa·s
viscosity (273.08 K, 1490 kPa): 0.2074 ± 0.006 mPa·s
viscosity (273.08 K, 1500 kPa): 0.2074 ± 0.006 mPa·s and 0.2073 ± 0.006 mPa·s
viscosity (273.08 K, 2940 kPa): 0.2147 ± 0.0061 mPa·s
viscosity (273.08 K, 2950 kPa): 0.2145 ± 0.0061 mPa·s
viscosity (273.08 K, 2990 kPa): 0.2145 ± 0.0061 mPa·s
viscosity (273.08 K, 5020 kPa): 0.2234 ± 0.0063 mPa·s
viscosity (273.08 K, 5030 kPa): 0.2229 ± 0.0062 mPa·s and 0.2233 ± 0.0063 mPa·s
viscosity (273.08 K, 5040 kPa): 0.2224 ± 0.0062 mPa·s and 0.2226 ± 0.0062 mPa·s
viscosity (273.08 K, 7480 kPa): 0.2324 ± 0.0064 mPa·s
viscosity (273.08 K, 7490 kPa): 0.2327 ± 0.0064 mPa·s and 0.2324 ± 0.0064 mPa·s
viscosity (273.08 K, 7510 kPa): 0.2324 ± 0.0064 mPa·s
viscosity (273.08 K, 7520 kPa): 0.2326 ± 0.0064 mPa·s
viscosity (273.08 K, 7530 kPa): 0.2324 ± 0.0064 mPa·s
viscosity (273.08 K, 9680 kPa): 0.2416 ± 0.0066 mPa·s
viscosity (273.08 K, 9690 kPa): 0.2419 ± 0.0066 mPa·s and 0.2421 ± 0.0066 mPa·s
viscosity (273.08 K, 9710 kPa): 0.2416 ± 0.0066 mPa·s
viscosity (283.29 K, 1550 kPa): 0.1781 ± 0.0055 mPa·s
viscosity (283.29 K, 1580 kPa): 0.1789 ± 0.0055 mPa·s
viscosity (283.29 K, 1590 kPa): 0.1788 ± 0.0055 mPa·s
viscosity (283.29 K, 1600 kPa): 0.1785 ± 0.0055 mPa·s
viscosity (283.29 K, 1620 kPa): 0.1783 ± 0.0055 mPa·s
viscosity (283.29 K, 3000 kPa): 0.1852 ± 0.0056 mPa·s
viscosity (283.29 K, 3010 kPa): 0.185 ± 0.0056 mPa·s
viscosity (283.29 K, 3030 kPa): 0.1852 ± 0.0056 mPa·s
viscosity (283.29 K, 3060 kPa): 0.185 ± 0.0056 mPa·s
viscosity (283.29 K, 5190 kPa): 0.1957 ± 0.0058 mPa·s
viscosity (283.29 K, 5220 kPa): 0.1955 ± 0.0058 mPa·s [middle of 4 runs]
viscosity (283.29 K, 5230 kPa): 0.1953 ± 0.0058 mPa·s
viscosity (283.29 K, 5270 kPa): 0.1956 ± 0.0058 mPa·s
viscosity (283.29 K, 7590 kPa): 0.2059 ± 0.006 mPa·s
viscosity (283.29 K, 7600 kPa): 0.2057 ± 0.006 mPa·s [middle of 5 runs]
viscosity (283.29 K, 10040 kPa): 0.2155 ± 0.0061 mPa·s and 0.2159 ± 0.0061 mPa·s
viscosity (283.29 K, 10050 kPa): 0.2155 ± 0.0061 mPa·s
viscosity (283.29 K, 10070 kPa): 0.2155 ± 0.0061 mPa·s
viscosity (283.29 K, 10080 kPa): 0.2157 ± 0.0061 mPa·s
viscosity (293.13 K, 2020 kPa): 0.1577 ± 0.0052 mPa·s
viscosity (293.13 K, 2030 kPa): 0.1581 ± 0.0052 mPa·s
viscosity (293.13 K, 2070 kPa): 0.1583 ± 0.0052 mPa·s
viscosity (293.13 K, 2100 kPa): 0.1584 ± 0.0052 mPa·s
viscosity (293.13 K, 2110 kPa): 0.1583 ± 0.0052 mPa·s
viscosity (293.13 K, 2140 kPa): 0.1583 ± 0.0052 mPa·s
viscosity (293.13 K, 5080 kPa): 0.172 ± 0.0054 mPa·s
viscosity (293.13 K, 5100 kPa): 0.1716 ± 0.0054 mPa·s
viscosity (293.13 K, 5130 kPa): 0.1719 ± 0.0054 mPa·s and 0.1715 ± 0.0054 mPa·s
viscosity (293.13 K, 7530 kPa): 0.1818 ± 0.0056 mPa·s and 0.1813 ± 0.0056 mPa·s and 0.1811 ± 0.0056 mPa·s
viscosity (293.13 K, 9990 kPa): 0.1918 ± 0.0057 mPa·s
viscosity (293.13 K, 10030 kPa): 0.1915 ± 0.0057 mPa·s
viscosity (293.13 K, 10040 kPa): 0.1917 ± 0.0057 mPa·s [middle of 4 runs]
viscosity (293.13 K, 10050 kPa): 0.1914 ± 0.0057 mPa·s
